Assays:
[1] = tested on: hematological tumor cell lines; assay: 3-day proliferation assay (CellTiter-Glo); format: cell-based, human; settings: Homo sapiens
Summary of the method: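 Growth inhibition was read by CellTiter-Glo after 3 days' exposure to 0–30 µM compound and expressed against DMSO controls. EC50 was derived by 4- or 6-parameter fitting. Cells were mostly grown in RPMI plus 10% FBS, some in vendor-specified media.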

[2] = biological target: T1, DDR2(h) (Homo sapiens, UniProt Q16832); assay: Kinase panel; format: biochemical; settings: read-out: % Inhibition
T1 construct: purchased Millipore KinaseProfiler
T1 sequence (Q16832 22-855): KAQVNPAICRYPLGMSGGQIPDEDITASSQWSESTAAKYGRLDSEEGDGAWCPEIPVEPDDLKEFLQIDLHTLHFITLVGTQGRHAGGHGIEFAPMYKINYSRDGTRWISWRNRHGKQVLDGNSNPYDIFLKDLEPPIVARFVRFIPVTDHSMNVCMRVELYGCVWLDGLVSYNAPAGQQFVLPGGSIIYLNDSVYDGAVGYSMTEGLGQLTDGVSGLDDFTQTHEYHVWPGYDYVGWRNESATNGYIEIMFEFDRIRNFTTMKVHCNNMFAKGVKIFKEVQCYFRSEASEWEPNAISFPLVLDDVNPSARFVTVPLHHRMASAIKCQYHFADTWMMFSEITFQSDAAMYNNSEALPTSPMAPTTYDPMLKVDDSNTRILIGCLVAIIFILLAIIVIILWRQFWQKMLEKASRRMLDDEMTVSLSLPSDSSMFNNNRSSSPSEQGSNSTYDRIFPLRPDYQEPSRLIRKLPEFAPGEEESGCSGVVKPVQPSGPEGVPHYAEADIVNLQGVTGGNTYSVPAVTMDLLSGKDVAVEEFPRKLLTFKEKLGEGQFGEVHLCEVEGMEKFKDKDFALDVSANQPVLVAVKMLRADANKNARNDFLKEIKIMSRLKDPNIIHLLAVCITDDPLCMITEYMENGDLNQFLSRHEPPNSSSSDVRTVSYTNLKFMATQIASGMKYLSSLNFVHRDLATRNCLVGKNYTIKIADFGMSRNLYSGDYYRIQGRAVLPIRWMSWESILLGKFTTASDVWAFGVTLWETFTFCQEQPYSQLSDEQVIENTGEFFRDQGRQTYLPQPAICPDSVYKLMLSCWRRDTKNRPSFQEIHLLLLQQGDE

[3] = biological target: T2, EGFR(h) (Homo sapiens, UniProt P00533); assay: Kinase panel; format: biochemical; settings: read-out: % Inhibition
T2 construct: purchased Millipore KinaseProfiler
T2 sequence (P00533 25-1210): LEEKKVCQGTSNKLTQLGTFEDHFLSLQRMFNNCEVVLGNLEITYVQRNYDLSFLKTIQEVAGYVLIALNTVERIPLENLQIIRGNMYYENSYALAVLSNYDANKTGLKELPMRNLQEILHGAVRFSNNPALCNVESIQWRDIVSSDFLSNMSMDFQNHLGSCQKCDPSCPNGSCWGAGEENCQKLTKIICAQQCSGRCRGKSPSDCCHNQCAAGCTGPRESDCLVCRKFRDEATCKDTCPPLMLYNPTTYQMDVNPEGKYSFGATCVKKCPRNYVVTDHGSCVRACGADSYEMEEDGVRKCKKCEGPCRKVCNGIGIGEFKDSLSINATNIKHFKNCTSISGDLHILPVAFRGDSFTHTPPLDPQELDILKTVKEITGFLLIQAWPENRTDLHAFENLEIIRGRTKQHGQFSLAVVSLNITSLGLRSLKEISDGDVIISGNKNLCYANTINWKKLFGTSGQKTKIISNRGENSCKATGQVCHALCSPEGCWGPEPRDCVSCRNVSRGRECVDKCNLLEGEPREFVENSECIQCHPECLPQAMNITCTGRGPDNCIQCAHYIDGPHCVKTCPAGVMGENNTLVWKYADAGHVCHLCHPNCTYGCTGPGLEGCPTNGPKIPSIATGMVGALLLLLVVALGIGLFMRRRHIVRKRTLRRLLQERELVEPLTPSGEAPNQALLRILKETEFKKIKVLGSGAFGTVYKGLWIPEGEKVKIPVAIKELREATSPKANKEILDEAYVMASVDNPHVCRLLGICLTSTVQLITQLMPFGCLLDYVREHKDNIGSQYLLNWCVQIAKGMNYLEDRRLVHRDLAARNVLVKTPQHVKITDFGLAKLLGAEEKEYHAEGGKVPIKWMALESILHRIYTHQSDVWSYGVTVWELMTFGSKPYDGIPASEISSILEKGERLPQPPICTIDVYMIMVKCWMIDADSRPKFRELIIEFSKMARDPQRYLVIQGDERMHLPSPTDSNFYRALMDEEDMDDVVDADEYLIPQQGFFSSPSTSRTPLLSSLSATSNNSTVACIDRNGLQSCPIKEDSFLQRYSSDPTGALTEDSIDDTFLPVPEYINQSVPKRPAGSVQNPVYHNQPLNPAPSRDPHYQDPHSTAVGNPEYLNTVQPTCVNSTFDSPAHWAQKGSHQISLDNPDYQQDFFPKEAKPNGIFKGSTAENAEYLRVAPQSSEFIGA

For Cn1ncc(Cl)c1-c1cc(C(=O)N[C@H](CN)Cc2ccc(F)c(F)c2)oc1Cl [GSK2141795], the IC50 ([1]; MC116, MC116 cell line, Burkitt's Lymphoma, B Cell) was 320 nM, the IC50 ([1]; MEC1, MEC1 cell line, CLL, B Cell) was 168 nM and the IC50 ([1]; MEC2, MEC-2 cell line, CLL, B Cell) was 112 nM. For the same compound, the IC50 ([1]; MEG-01, MEG01 cell line, CML, Megakaryoblastic) was 285 nM, the IC50 ([1]; MHH-CALL-3 cell line, ALL, pre-B Cell) was 26 nM and the IC50 ([1]; MHH-PREB-1, MHH-PREB-1 cell line, Non-Hodgkin's Lymphoma, B Cell) was 932 nM. The IC50 ([1]; ML-2, ML-2 cell line, AML, Myelomonocytic) was 399 nM, the IC50 ([1]; MOLT-3, MOLT3 cell line, ALL, T Cell) was 19 nM and the IC50 ([1]; MOLT-4, Molt-4 cell line, ALL, T Cell) was 10 nM. The IC50 ([1]; MOLT-16, MOLT16 cell line, ALL, T Cell) was 15 nM, the IC50 ([1]; MV4-11, MV-4-11 cell line, AML, Myelomonocytic) was 875 nM and the IC50 ([1]; NALM-6, Nalm-6 cell line, ALL, pre-B Cell) was 74 nM. It also gave an IC50 ([1]; NC-37, NC-37 cell line, Burkitt's Lymphoma, B Cell) of 752 nM, an IC50 ([1]; NOMO-1, Nomo-1 cell line, AML, B Cell) of 48 nM and an IC50 ([1]; NU-DHL-1, NU-DHL-1 cell line, Burkitt's Lymphoma, B Cell) of 16 nM. It also gave an IC50 ([1]; OCI-AML2, OCI-AML-2 cell line, AML, B Cell) of 18100 nM, an IC50 ([1]; OCI-AML-3, OCI-AML-3 cell line, AML, B Cell) of 28 nM and an IC50 ([1]; OCI-M1, OCI-M1 cell line, AML, B Cell) of 644 nM. For the same compound, the IC50 ([1]; P3HR-1, P3HR-1 cell line, Burkitt's Lymphoma, B Cell) was 17 nM, the IC50 ([1]; PLB-985, PLB985 cell line, AML, B Cell) was 1140 nM and the IC50 ([1]; Pfeiffer, Pfeiffer cell line, Non-Hodgkin's Lymphoma, B Cell) was 10 nM. For the same compound, the IC50 ([1]; RCH-ACV cell line, ALL, pre-B Cell) was 157 nM, the IC50 ([1]; RCK8, RC-K8 cell line, Non-Hodgkin's Lymphoma (Histiocytic), B Cell) was 1750 nM and the IC50 ([1]; REH, Reh cell line, ALL, pre-B Cell) was 92 nM. The IC50 ([1]; RL, RL cell line, Non-Hodgkin's Lymphoma, B Cell) was 72 nM, the IC50 ([1]; RPMI-6666, RPMI 6666 cell line, Hodgkin's Lymphoma, Lymphoblast) was 121 nM and the IC50 ([1]; RS4-11, RS4;11 cell line, ALL, B Cell) was 177 nM. The IC50 ([1]; Raji, Raji cell line, Burkitt's Lymphoma, B Cell) was 6370 nM, the IC50 ([1]; Rec1, REC-1 cell line, Non-Hodgkin's Lymphoma, B Cell) was 721 nM and the IC50 ([1]; SC-1, SC1 cell line, Burkitt's Lymphoma, B Cell) was 965 nM. The IC50 ([1]; SEM cell line, ALL, pre-B Cell) was 210 nM, the IC50 ([1]; SKO-007, SKO-007 cell line, Multiple Myeloma, B Cell) was 4890 nM and the IC50 ([1]; SKW3, SKW-3 cell line, CLL, B Cell) was 26 nM. The IC50 ([1]; SR, SR cell line, Non-Hodgkin's Lymphoma, Lymphoblast) was 1960 nM, the IC50 ([1]; ST486, ST486 cell line, Burkitt's Lymphoma, B Cell) was 745 nM and the IC50 ([1]; SU-DHL10, SU-DHL-10 cell line, Non-Hodgkin's Lymphoma, B Cell) was 73 nM. It also gave an IC50 ([1]; SU-DHL-4, SU-DHL-4 cell line, Non-Hodgkin's Lymphoma, B Cell) of 53 nM, an IC50 ([1]; SU-DHL-5, SU-DHL-5 cell line, Non-Hodgkin's Lymphoma, B Cell) of 31 nM and an IC50 ([1]; SU-DHL-6, SU-DHL-6 cell line, Non-Hodgkin's Lymphoma, B Cell) of 35 nM. For the same compound, the IC50 ([1]; SU-DHL-16, SU-DHL-16 cell line, Non-Hodgkin's Lymphoma, B Cell) was 23 nM, the IC50 ([1]; SUP-B15, SUP B15 cell line, ALL, B Cell) was 824 nM and the IC50 ([1]; T-cell, 8E5 cell line, ALL, T Cell) was 31 nM. For the same compound, the IC50 ([1]; T-cell, A3 cell line, ALL, T Cell) was 38 nM, the IC50 ([1]; T-cell, CEM/C3 cell line, ALL, T Cell) was 18 nM and the IC50 ([1]; T-cell, I2.1 cell line, ALL, T Cell) was 26 nM. It also gave an IC50 ([1]; T-cell, I9.2 cell line, ALL, T Cell) of 43 nM, an IC50 ([1]; T-cell, J.Cam.1.6 cell line, ALL, T Cell) of 41 nM and an IC50 ([1]; T-cell, J.RT-T3.5 cell line, ALL, T Cell) of 30 nM. The IC50 ([1]; T-cell, JR45.01 cell line, ALL, T Cell) was 16 nM, the IC50 ([1]; T-cell, LOUCY cell line, ALL, T Cell) was 13 nM and the IC50 ([1]; T-cell, MJ cell line, Non-Hodgkin's Lymphoma (CTCL), T Cell) was 2880 nM. The IC50 ([1]; T-cell, P116 cell line, ALL, T Cell) was 18 nM, the IC50 ([1]; T-cell, SUPTI(VB) cell line, ALL, T Cell) was 115 nM and the IC50 ([1]; TO 175.T, TO 175.T cell line, Hodgkin's Lymphoma, Unspecified) was 5250 nM. It also gave an IC50 ([1]; Toledo, Toledo cell line, Non-Hodgkin's Lymphoma, B Cell) of 99 nM, an IC50 ([1]; U-937, U937 cell line, Non-Hodgkin's Lymphoma (Histiocytic), Monocyte) of 22 nM and an inhibition at 0.5 µM ([2]; 0.5 µM) of 3%. The inhibition at 10 µM ([2]; 10 µM) was 12%, the inhibition at 0.5 µM ([3]; 0.5 µM) was -42% and the inhibition at 10 µM ([3]; 10 µM) was -40%.

— publication PMC4076210, “Discovery of Novel AKT Inhibitors with Enhanced Anti-Tumor Effects in Combination with the MEK Inhibitor” (PLoS ONE, 2014)
